Data published in patent US8987195B2 (priority 2012, dated 2015).
Where two headings read alike, the source gives them in different places.

How the values were obtained:
HCV genotype 1b replicon = assay: HCV replicon assay, genotype 1b replicon EC50; assay type: cell-based, Hepatitis C virus; settings: Hepatitis C virus, genotype 1b replicon, read-out: EC50 [gt-1b]
Description: Measuring Compound Inhibitory Potency (Genotype 1b Replicon EC50 (nM))
Measurement of inhibition by compounds was performed using the HCV replicon system. Several different replicons encoding different HCV genotypes or mutations were used. In addition, potency measurements were made using different formats of the replicon assay, including different ways of measurements and different plating formats. See Jan M. Vrolijk et al., A replicons-based bioassay for the measurement of interferons in patients with chronic hepatitis C, 110 J. VIROLOGICAL METHODS 201 (2003); Steven S. Carroll et al., Inhibition of Hepatitis C Virus RNA Replication by 2′-Modified Nucleoside Analogs, 278(14) J. BIOLOGICAL CHEMISTRY 11979 (2003). However, the underlying principles are common to all of these determinations, and are outlined below.
Stable neomycin phosphotransferase encoding replicon-harboring cell lines were used, so all cell lines were maintained under G418 selection prior to the assay. In some cases the cell lines encoded a luciferase:Neo^r fusion and could be assayed either directly by determination of RNA copy number, or indirectly through measurement of the luciferase activity.
To initiate an assay, replicon cells were plated in the presence of a dilution series of test compound in the absence of G418. Typically, the assays were performed in a 96-well plate format for manual operation, or a 384 well plate in an automated assay. Replicon cells and compound were incubated for 24-48 hours, depending on the assay. At the end of the assay, cells are washed free of media and compound and then lysed. For direct quantitation, RNA levels were measured by ^32P-probe hybridization and protection, or in a TAQMAN based assay and normalized to cellular cyclophilin A RNA levels. In some cases, luciferase activity was measured using a conventional luciferase assay. In all cases EC50 determinations were calculated as a percent of a DMSO control by fitting the data to a four parameter fit function.

[1] = molecular target: HCV NS3/4A protease genotype 1b (Hepatitis C virus genotype 1b, UniProt P26663); assay: HCV NS3/4A protease time-resolved fluorescence (TRF) assay, Ki against genotype 1b; assay type: biochemical; settings: IC50 [gt-1b] (nM), NS3/4A genotype 1b, enzyme 0.2 nM
Chain of HCV NS3/4A protease genotype 1b (P26663 1027-1657): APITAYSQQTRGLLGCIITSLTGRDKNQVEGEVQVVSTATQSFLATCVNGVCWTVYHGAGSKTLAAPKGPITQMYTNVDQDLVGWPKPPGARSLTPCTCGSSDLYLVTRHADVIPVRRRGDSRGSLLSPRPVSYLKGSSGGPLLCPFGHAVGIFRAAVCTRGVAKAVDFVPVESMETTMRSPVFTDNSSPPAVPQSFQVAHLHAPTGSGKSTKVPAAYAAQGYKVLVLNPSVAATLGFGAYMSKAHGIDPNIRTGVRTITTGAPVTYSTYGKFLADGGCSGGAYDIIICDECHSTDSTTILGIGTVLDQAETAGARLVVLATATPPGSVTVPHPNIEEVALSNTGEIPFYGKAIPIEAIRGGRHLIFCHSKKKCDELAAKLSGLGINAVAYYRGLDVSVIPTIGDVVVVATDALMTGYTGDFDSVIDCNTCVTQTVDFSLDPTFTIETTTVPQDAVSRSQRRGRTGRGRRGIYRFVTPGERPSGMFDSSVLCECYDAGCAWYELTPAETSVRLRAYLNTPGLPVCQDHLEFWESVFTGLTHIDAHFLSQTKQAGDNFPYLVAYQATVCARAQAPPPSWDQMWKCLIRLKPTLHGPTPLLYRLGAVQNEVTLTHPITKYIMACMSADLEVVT
Chain of HCV NS3/4A protease genotype 1b (P26663 1658-1711): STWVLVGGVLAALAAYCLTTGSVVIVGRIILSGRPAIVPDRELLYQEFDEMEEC
Outline: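 Ki values come from IC50 fits corrected for substrate concentration and KM. The time-resolved fluorescence protease reaction used 25 nM peptide substrate, 2.5 h, room temperature, pH 7.5 HEPES buffer, after 30 min enzyme–inhibitor preincubation.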

Row | Structure (SMILES) | EC50 (HCV genotype 1b replicon) [pM] | IC50 [1] [nM] | EC50 (HCV genotype 1b replicon; K+ salt) [pM] | IC50 ([1]; K+ salt) [nM]
1 | Cc1nc2ccc(OC(F)(F)F)cc2c2c1O[C@]1(CC2)C[C@H]2C(=O)N[C@]3(C(=O)NS(=O)(=O)C4(C)CC4)C[C@H]3/C=C\CCCCC[C@H](NC(=O)OC(C)(C)C)C(=O)N2C1 [Example 1, tert-butyl (2R,6S,13aS,14aR,16aS,Z)-5′-methyl-14a-(1-methylcyclopropylsulfonylcarbamoyl)-5,16-dioxo-9′-(trifluoromethoxy)-1′,2′,3,5,6,7,8,9,10,11,13a,14,14a,15, 16,16a-hexadecahydro-1H-spiro[cyclopropa[e]pyrrolo[1,2-a][1,4]diazacyclopentadecine-2,3′-pyrano[2,3-c]quinoline]-6-ylcarbamate] | 1470 | 0.013 | – | –
2 | COc1ccc2nc(C(C)C)c3c(c2c1)CC[C@]1(C[C@H]2C(=O)N[C@]4(C(=O)NS(=O)(=O)C5(C)CC5)C[C@H]4/C=C\CCCCC[C@H](NC(=O)OC(C)(C)C)C(=O)N2C1)O3 [Example 2, tert-Butyl (2R,6S,13aS,14aR,16aS,Z)-5′-isopropyl-9′-methoxy-14a-(1-methylcyclopropylsulfonylcarbamoyl)-5,16-dioxo-1′,2′,3,5,6,7,8,9,10,11,13a,14,14a,15,16,16a-hexadecahydro-1H-spiro[cyclopropa[e]pyrrolo[1,2-a][1,4]diazacyclopentadecine-2,3′-pyrano[2,3-c]quinoline]-6-ylcarbamate] | 1190 | 0.012 | – | –
3 | COc1ccc2nc(C(C)C)c3c(c2c1)C(F)(F)C[C@]1(C[C@H]2C(=O)N[C@]4(C(=O)NS(=O)(=O)C5(C)CC5)C[C@H]4/C=C\CCCCC[C@H](NC(=O)OC(C)(C)C)C(=O)N2C1)O3 [Example 3, tert-Butyl (2S,6S,13aS,14aR,16aS,Z)-1′,1′-difluoro-5′-isopropyl-9′-methoxy-14a-(1-methylcyclopropylsulfonylcarbamoyl)-5,16-dioxo-1′,2′,3,5,6,7,8,9,10,11,13a,14,14a, 15,16,16a-hexadecahydro-1H-spiro[cyclopropa[e]pyrrolo[1,2-a][1,4]diazacyclopentadecine-2,3′-pyrano[2,3-c]quinoline]-6-ylcarbamate] | 2900 | 0.004 | – | –
4 | CC(C)(C)OC(=O)N[C@H]1CCCCC/C=C\[C@@H]2C[C@@]2(C(=O)NS(=O)(=O)C2(C)CC2)NC(=O)[C@@H]2C[C@]3(CCc4c(c(C(F)(F)F)nc5ccccc45)O3)CN2C1=O [Example 4, tert-Butyl (2R,6S,13aS,14aR,16aS,Z)-14a-(1-methylcyclopropylsulfonylcarbamoyl)-5,16-dioxo-5′-(trifluoromethyl)-1′,2′,3,5,6,7,8,9,10,11,13a,14,14a,15,16,16a-hexadecahydro-1H-spiro[cyclopropa[e]pyrrolo[1,2-a][1,4]diazacyclopentadecine-2,3′-pyrano[2,3-c]quinoline]-6-ylcarbamate] | 813 | 0.009 | – | –
5 | COc1ccc2nc(C(F)(F)F)c3c(c2c1)CC[C@]1(C[C@H]2C(=O)N[C@]4(C(=O)NS(=O)(=O)C5(C)CC5)C[C@H]4/C=C\CCCCC[C@H](NC(=O)OC(C)(C)C)C(=O)N2C1)O3 [Example 5, tert-Butyl (2R,6S,13aS,14aR,16aS,Z)-9′-methoxy-14a-(1-methylcyclopropylsulfonylcarbamoyl)-5,16-dioxo-5′-(trifluoromethyl)-1′,2′,3,5,6,7,8,9,10,11,13a,14,14a,15,16, 16a-hexadecahydro-1H-spiro[cyclopropa[e]pyrrolo[1,2-a][1,4]diazacyclopentadecine-2,3′-pyrano[2,3-c]quinoline]-6-ylcarbamate] | 1360 | 0.015 | – | –
6 | CC(C)(C)OC(=O)N[C@H]1CCCCC/C=C\[C@@H]2C[C@@]2(C(=O)NS(=O)(=O)C2(C)CC2)NC(=O)[C@@H]2C[C@]3(CCc4c(c(C(F)(F)F)nc5ccc(OCCN6CCOCC6)cc45)O3)CN2C1=O [Example 7, tert-Butyl ((2R,6S,13aS,14aR,16aS,Z)-14a-(((1-methylcyclopropyl)sulfonyl)carbamoyl)-9′-(2-morpholinoethoxy)-5,16-dioxo-5′-(trifluoromethyl)-1′,2′,3,5,6,7,8,9,10, 11,13a,14,14a,15,16,16a-hexadecahydro-1H-spiro[cyclopropa[e]pyrrolo[1,2-a][1,4]diazacyclopentadecine-2,3′-pyrano[2,3-c]quinolin]-6-yl)carbamate] | 434 | 0.02 | – | –
7 | COc1ccc2nc(C(F)F)c3c(c2c1)CC[C@]1(C[C@H]2C(=O)N[C@]4(C(=O)NS(=O)(=O)C5(C)CC5)C[C@H]4/C=C\CCCCC[C@H](NC(=O)OC(C)(C)C)C(=O)N2C1)O3 [Example 10, tert-butyl ((2R,6S,13aS,14aR,16aS,Z)-5′-(difluoromethyl)-9′-methoxy-14a-(((1-methylcyclopropyl)sulfonyl)carbamoyl)-5,16-dioxo-1′,2′,3,5,6,7,8,9,10,11,13a,14,14a,15, 16,16a-hexadecahydro-1H-spiro[cyclopropa[e]pyrrolo[1,2-a][1,4]diazacyclopentadecine-2,3′-pyrano[2,3-c]quinolin]-6-yl)carbamate] | – | – | 1110 | 0.013
8 | COc1ccc2nc(C)c3c(c2n1)CC[C@]1(C[C@H]2C(=O)N[C@]4(C(=O)NS(=O)(=O)C5(C)CC5)C[C@H]4/C=C\CCCCC[C@H](NC(=O)OC(C)(C)C)C(=O)N2C1)O3 [Example 11, tert-butyl (2R,6S,13aS,14aR,16aS,Z)-2′-methoxy-6′-methyl-14a-(1-methylcyclopropylsulfonylcarbamoyl)-5,16-dioxo-3,5,6,7,8,9,9′,10,10′,11,13a,14,14a,15,16,16a-hexadecahydro-1H-spiro[cyclopropa[e]pyrrolo[1,2-a][1,4]diazacyclopentadecine-2,8′-pyrano[2,3-c][1,5]naphthyridine]-6-ylcarbamate] | 2700 | 0.007 | – | –
9 | COc1ccc2nc(C3CC3)c3c(c2c1)C(F)(F)C[C@]1(C[C@H]2C(=O)N[C@]4(C(=O)NS(=O)(=O)C5(C)CC5)C[C@H]4/C=C\CCCCC[C@H](NC(=O)OC(C)(C)C)C(=O)N2C1)O3 [Example 19, tert-Butyl (2S,6S,13aS,14aR,16aS,Z)-5′-cyclopropyl-1′,1′-difluoro-9′-methoxy-14a-(1-methylcyclopropylsulfonylcarbamoyl)-5,16-dioxo-1′,2′,3,5,6,7,8,9,10,11,13a,14,14a, 15,16,16a-hexadecahydro-1H-spiro[cyclopropa[e]pyrrolo[1,2-a][1,4]diazacyclopentadecine-2,3′-pyrano[2,3-c]quinoline]-6-ylcarbamate] | – | – | 1980 | 0.018
10 | COc1ccc2nc(C)c3c(c2c1)C(F)(F)C[C@]1(C[C@H]2C(=O)N[C@]4(C(=O)NS(=O)(=O)C5(C)CC5)C[C@H]4/C=C\CCCCC[C@H](NC(=O)OC(C)(C)C)C(=O)N2C1)O3 [Example 20, tert-Butyl (2S,6S,13aS,14aR,16aS,Z)-1′,1′-difluoro-9′-methoxy-5′-methyl-14a-(1-methylcyclopropylsulfonylcarbamoyl)-5,16-dioxo-1′,2′,3,5,6,7,8,9,10,11,13a,14,14a,15, 16,16a-hexadecahydro-1H-spiro[cyclopropa[e]pyrrolo[1,2-a][1,4]diazacyclopentadecine-2,3′-pyrano[2,3-c]quinoline]-6-ylcarbamate] | – | – | 1780 | 0.009
11 | Cc1nc2ccccc2c2c1O[C@@]1(C[C@H]3C(=O)N[C@]4(C(=O)NS(=O)(=O)C5(C)CC5)C[C@H]4/C=C\CCCCC[C@H](NC(=O)OC(C)(C)C)C(=O)N3C1)CC2(F)F [Example 25, tert-Butyl (2S,6S,13aS,14aR,16aS,Z)-1′,1′-difluoro-5′-methyl-14a-(1-methylcyclopropylsulfonylcarbamoyl)-5,16-dioxo-1′,2′,3,5,6,7,8,9,10,11,13a,14,14a,15,16,16a-hexadecahydro-1H-spiro[cyclopropa[e]pyrrolo[1,2-a][1,4]diazacyclopentadecine-2,3′-pyrano[2,3-c]quinoline]-6-ylcarbamate] | 1110 | 0.016 | – | –
12 | Cc1nc2ccccc2c2c1O[C@]1(C=C2)C[C@H]2C(=O)N[C@]3(C(=O)NS(=O)(=O)C4CC4)C[C@H]3/C=C\CCCCC[C@H](NC(=O)OC(C)(C)C)C(=O)N2C1 [Example 26, tert-Butyl (2S,6S,13aS,14aR,16aS,Z)-14a-(cyclopropylsulfonylcarbamoyl)-5′-methyl-5,16-dioxo-3,5,6,7,8,9,10,11,13a,14,14a,15,16,16a-tetradecahydro-1H-spiro [cyclopropa[e]pyrrolo[1,2-a][1,4]diazacyclopentadecine-2,3′-pyrano[2,3-c]quinoline-]-6-ylcarbamate] | 1340 | 0.013 | – | –
